Source: US20040014030A1, “Enzymatic assay of HIV protease inhibitors” (priority 2002, published 2004)
Where a SMILES comes first, the peptide text is derived from it.

Target: T1, HIV-1 protease (Human immunodeficiency virus type 1 group M subtype B, UniProt P04585)
T1 construct: the enzyme HIV-1 protease; purchased BACHEM AMERICAS (King of Prussia, Pa.)
Test: Kinetic parameter determination: hydrolysis of chromogenic substrate by HIV-1 PR monitored at 300 nm
Format: biochemical
Conditions: substrate hydrolysis by HIV-1 PR, 25° C., pH 4.9 assay buffer
Description: The synthetic chromogenic substrate, H-His-Lys-Ala-Arg-Val-Leu*Nph-Glu-Ala-Nle-Ser-NH2 (SEQ ID NO:3) and the enzyme HIV-1 protease (0.65 milligrams per milliliter (mg/mL), 16 International Units per milligram (IU/mg)) were purchased from BACHEM AMERICAS (King of Prussia, Pa.).
A stock solution containing 1 mg/mL of the chromogenic substrate in HIV PR assay buffer (50 millimolar (mM) sodium acetate, pH 4.9, 200 mM NaCl, 5 mM diothiothreitol (DTT), 10% (v/v) glycerol) was prepared by dissolving 5 mg chromogenic substrate in 5 mL of assay buffer. A substrate solution at a concentration of 101 micromolar (μM) was prepared in HIV-PR assay buffer from the substrate stock in a sample cup of Roche COBAS FARA. The stock mixture of HIV-1 PR as received was then diluted by 20-fold into this mixture. The hydrolysis of substrate by HIV-1 PR was monitored at 300 nm at 25° C. on a ROCHE DIAGNOSTICS COBAS FARA instrument.
A stock solution containing the chromogenic substrate at a concentration of 3 mg/mL was prepared by dissolving 5 mg chromogenic substrate in 1.67 mL of the assay buffer as described in Example 1. A series of substrate solutions were prepared in the HIV-PR assay buffer over the concentration range of 0-2282 μM. The stock solution of HIV-1 PR was then diluted by 20-fold into HIV PR assay buffer. The hydrolysis of substrate by HIV-1 PR was monitored at 300 nm at 25° C. on a ROCHE DIAGNOSTICS COBAS FARA instrument, as described in Example 1.

**Q.** What does the source list for `CCCC[C@H](NC(=O)[C@H](C)NC(=O)[C@H](CCC(=O)O)NC(=O)[C@H](Cc1ccc([N+](=O)[O-])cc1)NC(=O)[C@H](CC(C)C)NC(=O)[C@@H](NC(=O)[C@H](CCCNC(=N)N)NC(=O)[C@H](C)NC(=O)[C@H](CCCCN)NC(=O)[C@@H](N)Cc1c[nH]cn1)C(C)C)C(=O)N[C@@H](CO)C(N)=O` [chromogenic substrate, H-His-Lys-Ala-Arg-Val-Leu*Nph-Glu-Ala-Nle-Ser-NH2] (HELM PEPTIDE1{H.K.A.R.V.L.[O=C([C@H](Cc1ccc([N+](=O)[O-])cc1)N[*:1])[*:2]].E.A.[Nle].S.[am]}$$$$V2.0)?
**A.** apparent Vmax: 156.81 µmol/mg/min; apparent kcat: 58.02 s⁻¹; Km (substrate 0-2282 μM, read-out: apparent Km): 67 ± 7.55 µM
